Assay results published in patent US20230023092A1, “TREATMENT OF DEPRESSION AND OTHER VARIOUS DISORDERS WITH PSILOCYBIN” (COMPASS […], priority 2019, published 2023).

Assays:
[1] = system: healthy subjects; experiment: Pictorial Empathy Test (PET); type: in vivo, human
Protocol: In some embodiments, the Pictorial Empathy Test (PET) is utilized to evaluate the effect of psilocybin on affective empathy.
(§1) The Pictorial Empathy Test (PET), Reading the Mind in the Eyes Test (RMET), Scale of Social Responsibility (SSR), Social Value Orientation (SVO), and Toronto Empathy Questionnaire (TEQ) were performed. Table 20 summarizes the results of the mixed model for repeated measures (MMRM) analysis for each of the aforementioned social cognition panel scales measured on Day 7 and Day 84 after study drug administration.

[2] = system: healthy subjects; experiment: Social Value Orientation (SVO); type: in vivo, human
Source text: In some embodiments, the Social Value Orientation (SVO) test is utilized to evaluate the safety and/or efficacy of psilocybin. The SVO Slider Measure has 6 primary items with 9 secondary (and optional) items. All of the items have the same general form. Each item is a resource allocation choice over a well-defined continuum of joint payoffs.
as §1

[3] = system: subjects; conditions: prevalence unknown but likely; cited from earlier work
[4] = system: healthy subjects; experiment: Toronto Empathy Questionnaire (TEQ); type: in vivo, human; conditions: Day 7
Source text: In some embodiments, the Toronto Empathy Questionnaire (TEQ) is utilized to evaluate the safety and/or efficacy of psilocybin. The TEQ represents empathy as a primarily emotional process. […] The TEQ is a brief, reliable and valid instrument for the assessment of empathy. In some embodiments, after treating according to the methods of the disclosure, a subject's TEQ score increases by about 5%, about 10%, about 15%, about 20%, about 25%, about 30%, about 35%, about 40%, about 45%, about 50%, about 55%, about 60%, about 65%, about 70%, about 75%, about 80%, about 85%, about 90%, about 95%, or about 100%, about 110%, about 120%, about 130%, about 140%, about 150%, about 160%, about 170%, about 180%, about 190%, about 200%, about 210%, about 220%, about 230%, about 240%, about 250%, about 260%, about 270%, about 280%, about 290%, or about 300%, or more, compared to prior to treatment.
as §1

[5] = Day 7, psilocybin 10 mg - placebo
[6] = Day 7, psilocybin 25 mg - 10 mg
[7] = Day 7, psilocybin 25 mg - placebo
[8] = Day 84, psilocybin 10 mg - placebo
[9] = Day 84, psilocybin 25 mg - 10 mg
[10] = Day 84, psilocybin 25 mg - placebo

CN(C)CCc1c[nH]c2cccc(OP(=O)(O)O)c12 [Psilocybin, psilocybin]
PET change from baseline (LS mean) ([1]; Day 7, psilocybin 10 mg): −0.3 | PET change from baseline, LS mean difference [1, 5]: −0.1 | PET change from baseline (LS mean) ([1]; Day 7, psilocybin 25 mg): 0.0 | PET change from baseline, LS mean difference [1, 6]: 0.3 | PET change from baseline, LS mean difference [1, 7]: 0.2 | PET change from baseline (LS mean) ([1]; Day 84, psilocybin 10 mg): −0.3 | PET change from baseline, LS mean difference [1, 8]: −0.1 | PET change from baseline (LS mean) ([1]; Day 84, psilocybin 25 mg): −0.1 | PET change from baseline, LS mean difference [1, 9]: 0.3 | PET change from baseline, LS mean difference [1, 10]: 0.1 | SVO angle change from baseline (LS mean) ([2]; Day 7, psilocybin 10 mg): 1.8 | SVO type change from baseline (LS mean) ([2]; Day 7, psilocybin 10 mg): 0.1 | SVO angle change from baseline, LS mean difference [2, 5]: 3.4 | SVO type change from baseline, LS mean difference [2, 5]: 0.1 | SVO angle change from baseline (LS mean) ([2]; Day 7, psilocybin 25 mg): 0.5 | SVO type change from baseline (LS mean) ([2]; Day 7, psilocybin 25 mg): 0.1 | SVO angle change from baseline, LS mean difference [2, 6]: −1.3 | SVO type change from baseline, LS mean difference [2, 6]: −0.0 | SVO angle change from baseline, LS mean difference [2, 7]: 2.1 | SVO type change from baseline, LS mean difference [2, 7]: 0.1 | SVO angle change from baseline (LS mean) ([2]; Day 84, psilocybin 10 mg): 0.1 | SVO type change from baseline (LS mean) ([2]; Day 84, psilocybin 10 mg): 0.1 | SVO angle change from baseline, LS mean difference [2, 8]: 3.4 | SVO type change from baseline, LS mean difference [2, 8]: 0.1 | SVO angle change from baseline (LS mean) ([2]; Day 84, psilocybin 25 mg): −0.9 | SVO type change from baseline (LS mean) ([2]; Day 84, psilocybin 25 mg): 0.0 | SVO angle change from baseline, LS mean difference [2, 9]: −1.0 | SVO type change from baseline, LS mean difference [2, 9]: −0.0 | SVO angle change from baseline, LS mean difference [2, 10]: 2.4 | SVO type change from baseline, LS mean difference [2, 10]: 0.1 | Frequency of rare side effects: HPPD/flashbacks; worsening of mental state after drug experience [3]: unknown but likely <2%) | TEQ change from baseline (LS mean) ([4]; psilocybin 10 mg): −0.1 | TEQ change from baseline, LS mean difference ([4]; psilocybin 10 mg - placebo): 0.1 | TEQ change from baseline (LS mean) ([4]; psilocybin 25 mg): 0.0 | TEQ change from baseline, LS mean difference ([4]; psilocybin 25 mg - 10 mg): 0.1 | TEQ change from baseline, LS mean difference ([4]; psilocybin 25 mg - placebo): 0.2
